The target in one test is T1, ACSS2 (Homo sapiens, UniProt Q9NR19).
T1 construct: endogenous fatty acid synthesis activity in the human HCT-15 cancer cell line; endogenous in cells; host or cells: HCT-15
Briefly: Cellular assay of 14C acetate incorporation into histones (IC50 ACSS2 cellular histone). Type of test: cell-based. Conditions: HCT-15 cells. On the procedure:
This protocol describes a cellular assay capable to quantify endogenous histone acetylation activity in the human HCT-15 cancer cell line following the incorporation of extracellularly administered radiolabeled ^14C acetate with a scintillation based read out on acid extracted histones.
HCT-15 cells are trypsinized, washed and suspended in DMEM culture medium supplemented with penicillin/streptomycin (100 U/mL), sodium pyruvate (1 mM), and 10% FBS
Compounds serial dilutions are prepared in 96-well V-bottom microplate from 10 mM stock solutions in DMSO. From these dilutions 0.5 µl are transferred to a fresh plate including pure DMSO as negative control. The dilutions are prepared such, that the final concentration in the assay is 1/400 of the concentration in the serial dilution. The final DMSO concentration in the assay is 0.25 %.
The cell suspension is seeded at densities of 2x10^5 cells per 170 µl into individual wells of a 96 well plate each containing 0.5 µl aliquots of compound serial dilutions and are kept for 1h in a cell incubator. To each well 30 µL of a mixture containing 0.5 mCi/mL of ^14C-acetate with full medium are added. Then, the wells are incubated for 3 hrs in the cell incubator.
Further steps of the procedure should be conducted on ice or instrumentations precooled to 4° C. Cells are sedimented in the 96-well V-bottom microplate by centrifugation (Eppendorf 5804 R) at 1200 rpm for 5 min. The supernatant is removed and the cells are washed twice with 200µL of PBS-NaB (5 mM sodium butyrate) buffer by iterative resuspension and centrifugation. Finally, the cells are resuspended in 50 µL of TEB (PBS-NaB + 0.5 % Triton X-100) and left on ice for 10 minutes. After centrifugation at 2300 rpm for 10 minutes at 4° C. the supernatant is removed, the remaining pellet is suspended in 50 µL of 0.2 M HCl and incubated over night at 4° C. After incubation the well plate is shaken for 2 minutes in a MTP plate shaker set to 1200 rpm and then centrifuged at 3700 rpm for 10 mins. The lysate is carefully aspirated (~43 µL) and transferred into a white MTP plate (Greiner bio-one 65509). 90 µL of Ultima Gold XR scintillation cocktail are added and the plates are sealed with a transparent cover tape before mixing vigorously using plate shaker set to 1200 rpm. Radioactivity from ^14C incorporation in the wells is measured as CPM count in a MicroBeta Trilux luminescence counter.

A further test deals with T2, human rec ACSS2 (Homo sapiens, UniProt Q9NR19).
T2 construct: myc (C); purchased Origene
T2 sequence (Q9NR19 whole entry): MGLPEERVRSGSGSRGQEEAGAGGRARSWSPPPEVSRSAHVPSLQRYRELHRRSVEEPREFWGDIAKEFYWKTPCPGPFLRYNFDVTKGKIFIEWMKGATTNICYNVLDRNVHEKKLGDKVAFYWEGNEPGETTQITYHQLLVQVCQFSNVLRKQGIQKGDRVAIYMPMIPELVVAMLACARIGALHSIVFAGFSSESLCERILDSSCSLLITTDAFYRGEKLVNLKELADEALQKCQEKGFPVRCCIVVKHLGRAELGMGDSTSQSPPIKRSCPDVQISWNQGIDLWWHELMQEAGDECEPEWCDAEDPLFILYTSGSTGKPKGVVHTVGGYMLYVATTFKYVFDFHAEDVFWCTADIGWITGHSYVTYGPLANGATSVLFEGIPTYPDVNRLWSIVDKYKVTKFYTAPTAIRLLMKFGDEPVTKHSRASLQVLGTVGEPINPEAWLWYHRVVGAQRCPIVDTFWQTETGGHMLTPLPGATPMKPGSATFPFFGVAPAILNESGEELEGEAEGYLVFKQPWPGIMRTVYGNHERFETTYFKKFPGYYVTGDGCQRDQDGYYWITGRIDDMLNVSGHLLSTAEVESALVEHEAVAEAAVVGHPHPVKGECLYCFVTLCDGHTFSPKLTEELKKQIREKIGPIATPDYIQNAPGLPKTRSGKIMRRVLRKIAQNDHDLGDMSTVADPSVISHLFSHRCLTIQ
The test can be described thus: Biochemical activity ACSS2 assay (AMP-Glo). Conditions: human recombinant ACSS2, AMP-Glo, 180 min at 37° C. As for the experimental part: The biochemical activity assay for ACSS2 is based on the detection of released AMP by AMP-Glo ™ Assay kit (Promega, Madison). The assay is run in three steps: the enzymatic reaction in which human rec ACSS2 activates acetate with ATP and Coenzyme A as cosubstrates to acetyI-coA thereby releasing AMP and the detection reaction of AMP by AMP Glo assay in which after the destruction of the residual ATP with AMP Glo reagent 1 produced AMP is converted to ATP that is measured in a luciferase assay system (detection reagent). The ACSS2 activity correlates with the detected luminescence signal.
The assay was performed in Perkin Elmer 384well white Proxiplates in a total volume of 8 µl.
1 nM (fc) C-term myc tagged ACSS2 (human, recombinant, Origene, Rockville, US) and a mixture of 100 µM (fc) ATP, 100 µM (fc) Coenzyme A and 500 µM (fc) sodium acetate were incubated in a total volume of 5 µl (50 mM Hepes, 1 mM Mg-chloride, 150 mM NaCl, 1 mM DTT, 0.01 % (w/v) BSA, 0.3 % DMSO, pH 7.5) in the absence or presence of the test compound (10 dilution concentrations, start conc 30 µM) for 180 min at 37° C. The reaction was stopped and residual ATP destroyed by the addition of 1 µl AMP Glo reagent solution (Promega, Madison, US). After 1 h incubation at room temperature 2 µl of AMP Glo detection reagent was added and the assay was incubated for 0.75 hr at room temperature. The luminescence signal was measured with an Envision multimode reader (Perkin Elmer LAS Germany GmbH) at 700 nm in luminescence mode. The full value used was the inhibitor-free reaction. The pharmacological zero value was generated by addition of ACSS2 inhibitor (Ac-CoA Synthase Inhibitor - CAS 508186-14-9 -Calbiochem) in a final concentration of 5 µM. The inhibitory values (IC50) were determined using the program Assay Analyzer® from GeneData.

T1 sequence (Q9NR19 whole entry): as above

A word on the IC50: it is the midpoint of a concentration-inhibition curve. For `CCn1cc(NC(=O)c2cc3c(nc2Cl)nc(C(O)(c2ccccc2)c2ccc(OC(F)F)cc2F)n3CC)cn1` (racemic) [Compound 81, 5-chloro-2-{[4-(difluoromethoxy)-2-fluorophenyl](hydroxy)phenylmethyl}-1-ethyl-N-(1-ethyl-1H-pyrazol-4-yl)-1H-imidazo[4,5-b]pyridine-6-carboxamide], the IC50 at ACSS2 lay in the range of 10 to 100 nM; at human rec ACSS2, 1 to 10 nM.

Take `CCn1cc(NC(=O)c2cc3c(nc2Cl)nc(C(O)(c2ccccc2F)c2ccc(OC(F)F)cc2F)n3CC)cn1` (racemic) [Compound 93, 5-chloro-2-{[4-(difluoromethoxy)-2-fluorophenyl](2-fluorophenyl)hydroxymethyl}-1-ethyl-N-(1-ethyl-1H-pyrazol-4-yl)-1H-imidazo[4,5-b]pyridine-6-carboxamide]: the IC50 against ACSS2 lay within 10 to 100 nM; at human rec ACSS2 it was 1 to 10 nM.

As to `CCn1cnc(NC(=O)c2cc3c(nc2OC)nc(C(O)(c2ccccc2)c2ccc(OC(F)F)cc2F)n3CC)n1` (racemic) [Compound 78, 2-{[4-(difluoromethoxy)-2-fluorophenyl](hydroxy)phenylmethyl}-1-ethyl-N-(1-ethyl-1H-1,2,4-triazol-3-yl)-5-methoxy-1H-imidazo[4,5-b]pyridine-6-carboxamide], the IC50 is 0.01 to 1 nM on ACSS2 and 1 to 10 nM at human rec ACSS2.

For the compound `CCn1cc(NC(=O)c2cnc3nc(C(O)(c4ccccc4)c4ccccc4)n(C)c3c2)cn1` [Compound 114, N-(1-ethyl-1H-pyrazol-4-yl)-2-(hydroxydiphenylmethyl)-1-methyl-1H-imidazo[4,5-b]pyridine-6-carboxamide], the IC50 on ACSS2 and on human rec ACSS2 was 10 to 100 nM throughout.

Consider `CCn1cnc(NC(=O)c2cc3c(nc2OC)nc(C(O)(c2ccccc2)c2ccccc2OC)n3CC)n1` (racemic) [Compound 57, 1-ethyl-N-(1-ethyl-1H-1,2,4-triazol-3-yl)-2-[hydroxy(2-methoxyphenyl)phenylmethyl]-5-methoxy-1H-imidazo[4,5-b]pyridine-6-carboxamide], for which the IC50 against ACSS2 lay in the range of 10 to 100 nM; on human rec ACSS2, 100 to 10000 nM.

Consider `CCn1cnc(NC(=O)c2cc3c(nc2Cl)nc(C(O)(c2ccccc2)c2ccccc2)n3CC)c1` [Compound 82, 5-chloro-1-ethyl-N-(1-ethyl-1H-imidazol-4-yl)-2-(hydroxydiphenylmethyl)-1H-imidazo[4,5-b]pyridine-6-carboxamide], for which the IC50 at ACSS2 was 0.01 to 1 nM; at human rec ACSS2, 1 to 10 nM.

`CCn1cc(NC(=O)c2cc3c(nc2Cl)nc(C(O)(c2ccccc2)c2ccc(OC(F)F)cc2F)n3CC)cn1` (single isomer, unassigned) [Compound 74]: the IC50 at ACSS2 and on human rec ACSS2 was 1 to 10 nM throughout.

For the compound `CCc1nc(CNC(=O)c2cc3c(nc2OC)nc(C(O)(c2ccccc2)c2ccccc2)n3CC)no1` [Compound 63, 1-ethyl-N-[(5-ethyl-1,2,4-oxadiazol-3-yl)methyl]-2-(hydroxydiphenylmethyl)-5-methoxy-1H-imidazo[4,5-b]pyridine-6-carboxamide], the IC50 on ACSS2 was 10 to 100 nM; on human rec ACSS2, 100 to 10000 nM.

As to `CCn1cnc(NC(=O)c2cc3c(nc2Cl)nc(C(O)(c2ccccc2F)c2ccccc2F)n3CC)n1` [Compound 100, 2-[bis(2-fluorophenyl)(hydroxy)methyl]-5-chloro-1-ethyl-N-(1-ethyl-1H-1,2,4-triazol-3-yl)-1H-imidazo[4,5-b]pyridine-6-carboxamide], the IC50 fell in the range of 1 to 10 nM at ACSS2 and 0.01 to 1 nM at human rec ACSS2.

Turning to `CCn1c(C(O)(c2ccccc2)c2ccccc2)nc2nc(Cl)c(C(=O)Nc3cnn(CCOC)c3)cc21` [Compound 67, 5-chloro-1-ethyl-2-(hydroxydiphenylmethyl)-N-[1-(2-methoxyethyl)-1H-pyrazol-4-yl]-1H-imidazo[4,5-b]pyridine-6-carboxamide], the IC50 at ACSS2 and on human rec ACSS2 was 10 to 100 nM in each case.

Regarding `CCn1cnc(NC(=O)c2cc3c(nc2OC)nc(C(O)(c2ccccc2)c2ccccc2)n3CCOC)n1` [Compound 41, N-(1-ethyl-1H-1,2,4-triazol-3-yl)-2-(hydroxydiphenylmethyl)-5-methoxy-1-(2-methoxyethyl)-1H-imidazo[4,5-b]pyridine-6-carboxamide], the IC50 against ACSS2 and on human rec ACSS2 was 1 to 10 nM throughout.

On to `CCn1cnc(NC(=O)c2cc3c(nc2Cl)nc(C(O)(c2ccccc2)c2ccccc2)n3CC)n1` [Compound 99, 5-chloro-1-ethyl-N-(1-ethyl-1H-1,2,4-triazol-3-yl)-2-(hydroxydiphenylmethyl)-1H-imidazo[4,5-b]pyridine-6-carboxamide], for which the IC50 at ACSS2 was 0.01 to 1 nM; at human rec ACSS2, 1 to 10 nM.

In the case of `CCn1cnc(NC(=O)c2cc3c(nc2OC)nc(C(O)(c2ccccc2)c2ccncn2)n3CC)n1` (racemic) [Compound 42, 1-ethyl-N-(1-ethyl-1H-1,2,4-triazol-3-yl)-2-[hydroxy(phenyl)(pyrimidin-4-yl)methyl]-5-methoxy-1H-imidazo[4,5-b]pyridine-6-carboxamide], the half-inhibitory concentration (IC50) is 1 to 10 nM against ACSS2 and 10 to 100 nM on human rec ACSS2.

With `CCn1cnc(NC(=O)c2cc3c(nc2OC)nc(C(O)(c2ccccc2C)c2ccccc2C)n3CC)n1` [Compound 52, 1-ethyl-N-(1-ethyl-1H-1,2,4-triazol-3-yl)-2-[hydroxybis(2-methylphenyl)methyl]-5-methoxy-1H-imidazo[4,5-b]pyridine-6-carboxamide], the IC50 against ACSS2 and on human rec ACSS2 was 10 to 100 nM in each case.

On to `CCc1c(C(O)(c2ccccc2)c2ccccn2)nc2cc(OC)c(C(=O)Nc3ncn(CC)n3)cn12` (single isomer, unassigned) [Compound 17, 3-ethyl-N-(1-ethyl-1,2,4-triazol-3-yl)-2-[hydroxy-phenyl-(2-pyridyl)methyl]-7-methoxy-imidazo[1,2-a]pyridine-6-carboxamide], for which the IC50 at ACSS2 and on human rec ACSS2 was 10 to 100 nM in each case.

For `CCn1cnc(NC(=O)c2cnc3nc(C(O)(c4ccccc4F)c4ccccc4F)n(CC)c3c2)n1` [Compound 110, 2-[bis(2-fluorophenyl)(hydroxy)methyl]-1-ethyl-N-(1-ethyl-1H-1,2,4-triazol-3-yl)-1H-imidazo[4,5-b]pyridine-6-carboxamide], the IC50 on ACSS2 and at human rec ACSS2 was 1 to 10 nM each time.

Consider `CCn1cnc(NC(=O)c2cc3c(nc2OC)nc(C(O)(c2ccccc2)c2ncccn2)n3CC)n1` (racemic) [Compound 49, 1-ethyl-N-(1-ethyl-1H-1,2,4-triazol-3-yl)-2-[hydroxy(phenyl)(pyrimidin-2-yl)methyl]-5-methoxy-1H-imidazo[4,5-b]pyridine-6-carboxamide], for which the IC50 on ACSS2 was in the range of 1 to 10 nM; on human rec ACSS2, 10 to 100 nM.

Values taken from patent US20230271956A1, “AMIDE DERIVATIVES” (Merck Patent GmbH, priority 2020, published 2023).
